Values quoted from earlier work in patent publication US20150209442A1, “METHOD TO IMPROVE PHARMACOKINETICS OF DRUGS” (The Board of Regents of the University of Texas System, priority 2012, published 2015).

How the values were obtained:
TRPV1 = conditions: spinal cord; completely reversible by a TRPV1 antagonist

9-hydroxyoctadecadienoic acid [9-HODE]
tactile allodynia (TRPV1): results in tactile allodynia

COc1cc(CNC(=O)CCCC/C=C/C(C)C)ccc1O [capsaicin]
tactile allodynia (TRPV1): results in tactile allodynia

CC(C(=O)O)c1ccc(-c2ccccc2)c(F)c1 (stereo not shown) [flurbiprofen]
bound to plasma proteins: > 99% | free (unbound) share of total concentration in plasma (plasma): ~0.1%
